From patent US12643912B2, “Macrocyclic compounds, a process for their preparation and pharmaceutical compositions containing them” (LES LABORATOIRES SERVIER, priority 2020, dated 2026)

What was measured:
[1] = target: T1, Keap1 (A321-C624) (h) (Homo sapiens, UniProt Q14145); test: Surface Plasmon Resonance binding assay to Kelch domain of KEAP1; conditions: Biacore T200, 25° C., immobilized His-Thromb-KEAP1(A321-C624), single cycle kinetics, KD=kd/ka from 1:1 fit; read-out: Keap1 (A321-C624) (h) direct/SPR (KD)
T1 construct: His-Thromb-KEAP1(A321-C624) acquired from Novalix (batch PU-P01) was immobilized covalently by amine coupling; His tag (N); thrombin cleavage site (Thromb) (N); purchased Novalix batch PU-P01
T1 sequence (Q14145 321-624): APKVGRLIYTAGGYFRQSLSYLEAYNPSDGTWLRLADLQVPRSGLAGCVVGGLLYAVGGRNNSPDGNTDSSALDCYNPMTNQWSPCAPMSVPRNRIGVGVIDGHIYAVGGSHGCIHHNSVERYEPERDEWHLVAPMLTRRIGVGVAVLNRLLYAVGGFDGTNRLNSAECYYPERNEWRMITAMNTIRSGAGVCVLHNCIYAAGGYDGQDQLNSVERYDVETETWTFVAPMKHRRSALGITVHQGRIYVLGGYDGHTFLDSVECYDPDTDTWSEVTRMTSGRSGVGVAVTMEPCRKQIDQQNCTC
In short: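 His-Thromb-KEAP1(A321-C624) amine-coupled on CM5 chip to 1250 RU; amine blank reference. Run at 25° C in HEPES pH 7.4, 150 mM NaCl, 3 mM EDTA, 1 mM TCEP, 0.05% P20, 5% DMSO; 180 s association, 720 s dissociation, 50 μL/min. KD = kd/ka from 1:1 kinetic fit, double-referenced, DMSO solvent-corrected.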

[2] = tested on: Nrf2 (Keap1-NRF2 nuclear translocation); test: U2OS translocation assay (PathHunter U2OS Keap1-NRF2 Nuclear Translocation Cell Line); format: cell-based; conditions: Homo sapiens, U2OS, 3 h, read-out: CELLULAR U2OS EC50 (nM), U2OS Keap1-NRF2 nuclear translocation cells, 3 h incubation, luminescence, normalized between 1% DMSO and 10 μM andrographolide
In short: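 Enzyme-fragment complementation read-out: luminescence after 60 min of detection reagent at room temperature, following a 3 h, 37° C compound exposure of engineered U2OS Keap1-NRF2 translocation cells (1% FBS medium). Signal scaled from 1% DMSO basal to 10 μM andrographolide maximum.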

| Kd [1] | SMILES | EC50 [2] |
| --- | --- | --- |
| 1.34 nM | Cc1ccc2cc1[C@@H](C)N1Cc3cc(ccc3OS1(=O)=O)OCCCCCCn1nnc3c(C)c(ccc31)[C@@H]2CC(=O)O [Example 19a, [(2R,8R)-2,4,33-Trimethyl-29,29-dioxo-23,28-dioxa-29λ^6-thia-1,14,15,16-tetraazahexacyclo[22.5.3.1^3,70.1^9,130.0^12,160.0^27,31]tetratriaconta-3(34),4,6,9(33),10,12,14,24,26,31-decaen-8-yl]acetic acid] | 73.6 nM |
| 0.646 nM | Cc1ccc2cc1[C@@H](C)N1Cc3cc(ccc3OS1(=O)=O)OCCCCCCn1nnc3c(C)c(ccc31)[C@H]2CC(=O)O [Example 19b, [(2R,8S)-2,4,33-trimethyl-29,29-dioxo-23,28-dioxa-29λ^6-thia-1,14,15,16-tetraazahexacyclo[22.5.3.1^3,70.1^9,130.0^12,160.0^27,31]tetratriaconta-3(34),4,6,9(33),10,12,14,24,26,31-decaen-8-yl]acetic acid] | 2.76 nM |
| 0.549 nM | Cc1ccc2cc1[C@@H](C)N1Cc3cc(ccc3OS1(=O)=O)OCCCCCn1nnc3c(C)c(ccc31)[C@H]2CC(=O)O [Example 20a, [(2R,8S)-2,4,32-Trimethyl-28,28-dioxo-22,27-dioxa-28λ^6-thia-1,14,15,16-tetraazahexacyclo[21.5.3.1^3,70.1^9,130.0^12,160.0^26,30]tritriaconta-3(33),4,6,9(32),10,12,14,23,25,30-decaen-8-yl]acetic acid] | 1.99 nM |
| 2.3 nM | Cc1ccc2cc1[C@@H](C)N1Cc3cc(ccc3OS1(=O)=O)OCCCCCn1nnc3c(C)c(ccc31)[C@@H]2CC(=O)O [Example 20b, [(2R,8R)-2,4,32-trimethyl-28,28-dioxo-22,27-dioxa-28λ^6-thia-1,14,15,16-tetraazahexacyclo[21.5.3.1^3,70.1^9,130.0^12,160.0^26,30]tritriaconta-3(33),4,6,9(32),10,12,14,23,25,30-decaen-8-yl]acetic acid] | 131 nM |
| 50.5 nM | COc1cc2cc3c1OS(=O)(=O)N(C3)[C@H](C)c1cc(ccc1C)[C@@H](CC(=O)O)c1ccc3c(nnn3CCCCO2)c1C [Example 23a, [(2R,8R)-24-Methoxy-2,4,31-trimethyl-27,27-dioxo-21,26-dioxa-27λ^6-thia-1,14,15,16-tetraazahexacyclo[20.5.3.1^3,70.1^9,130.0^12,160.0^25,29]dotriaconta-3(32),4,6,9(31),10,12,14,22,24,29-decaen-8-yl]acetic acid] | 3160 nM |
| 8.8 nM | COc1cc2cc3c1OS(=O)(=O)N(C3)[C@H](C)c1cc(ccc1C)[C@H](CC(=O)O)c1ccc3c(nnn3CCCCO2)c1C [Example 23b, [(2R,8S)-24-methoxy-2,4,31-trimethyl-27,27-dioxo-21,26-dioxa-27λ^6-thia-1,14,15,16-tetraazahexacyclo[20.5.3.1^3,70.1^9,130.0^12,160.0^25,29]dotriaconta-3(32),4,6,9(31),10,12,14,22,24,29-decaen-8-yl]acetic acid] | 344 nM |
| 3.4 nM | Cc1ccc2cc1[C@@H](C)N1Cc3cc(ccc3OS1(=O)=O)OCCOCCCn1nnc3c(C)c(ccc31)[C@H]2CC(=O)O [Example 26a, [(2R,8S)-2,4,33-Trimethyl-29,29-dioxo-20,23,28-trioxa-29λ^6-thia-1,14,15,16-tetraazahexacyclo[22.5.3.1^3,70.1^9,130.0^12,160.0^27,31]tetratriaconta-3(34),4,6,9(33),10,12,14,24,26,31-decaen-8-yl]acetic acid] | 11.3 nM |
| 12.2 nM | Cc1ccc2cc1[C@@H](C)N1Cc3cc(ccc3OS1(=O)=O)OCCOCCCn1nnc3c(C)c(ccc31)[C@@H]2CC(=O)O [Example 26b, [(2R,8R)-2,4,33-trimethyl-29,29-dioxo-20,23,28-trioxa-29λ^6-thia-1,14,15,16-tetraazahexacyclo[22.5.3.1^3,70.1^9,130.0^12,160.0^27,31]tetratriaconta-3(34),4,6,9(33),10,12,14,24,26,31-decaen-8-yl]acetic acid] | 88.8 nM |
| 14.2 nM | Cc1ccc2cc1[C@@H](C)N1Cc3cc(ccc3OS1(=O)=O)OCCCOCCn1nnc3c(C)c(ccc31)[C@@H]2CC(=O)O [Example 27a, [(2R,8R)-2,4,33-Trimethyl-29,29-dioxo-19,23,28-trioxa-29λ^6-thia-1,14,15,16-tetraazahexacyclo[22.5.3.1^3,70.1^9,130.1^12,160.0^27,31]tetratriaconta-3(34),4,6,9(33),10,12,14,24,26,31-decaen-8-yl]acetic acid] | 93.1 nM |
| 3.56 nM | Cc1ccc2cc1[C@@H](C)N1Cc3cc(ccc3OS1(=O)=O)OCCCOCCn1nnc3c(C)c(ccc31)[C@H]2CC(=O)O [Example 27b, [(2R,8S)-2,4,33-trimethyl-29,29-dioxo-19,23,28-trioxa-29λ^6-thia-1,14,15,16-tetraazahexacyclo[22.5.3.1^3,70.1^9,130.0^12,160.0^27,31]tetratriaconta-3(34),4,6,9(33),10,12,14,24,26,31-decaen-8-yl]acetic acid] | 16.2 nM |
| 23.4 nM | COc1ccc2cc1[C@@H](C)N1Cc3cc(ccc3OS1(=O)=O)OCCCCn1nnc3c(C)c(ccc31)[C@@H]2CC(=O)O [Example 28a, [(2R,8R)-4-Methoxy-2,31-dimethyl-27,27-dioxo-21,26-dioxa-27λ^6-thia-1,14,15,16-tetraazahexacyclo[20.5.3.1^3,70.1^9,130.0^12,160.0^25,29]dotriaconta-3(32),4,6,9(31),10,12,14,22,24,29-decaen-8-yl]acetic acid] | 611 nM |
| 3.25 nM | COc1ccc2cc1[C@@H](C)N1Cc3cc(ccc3OS1(=O)=O)OCCCCn1nnc3c(C)c(ccc31)[C@H]2CC(=O)O [Example 28b, [(2R,8S)-4-methoxy-2,31-dimethyl-27,27-dioxo-21,26-dioxa-27λ^6-thia-1,14,15,16-tetraazahexacyclo[20.5.3.1^3,70.1^9,130.0^12,160.0^25,29]dotriaconta-3(32),4,6,9(31),10,12,14,22,24,29-decaen-8-yl]acetic acid] | 15.3 nM |
| 5.51 nM | COc1ccc2cc1[C@@H](C)N1Cc3cc(ccc3OS1(=O)=O)OCCCCCCn1nnc3c(C)c(ccc31)[C@H]2CC(=O)O [Example 40a, [(2R,8S)-4-methoxy-2,33-dimethyl-29,29-dioxo-23,28-dioxa-29λ^6-thia-1,14,15,16-tetraazahexacyclo[22.5.3.1^3,70.1^9,130.0^12,160.0^27,31]tetratriaconta-3(34),4,6,9(33),10,12,14,24,26,31-decaen-8-yl]acetic acid] | 9.72 nM |
| 22.3 nM | COc1ccc2cc1[C@@H](C)N1Cc3cc(ccc3OS1(=O)=O)OCCCCCCn1nnc3c(C)c(ccc31)[C@@H]2CC(=O)O [Example 40b, [(2R,8R)-4-methoxy-2,33-dimethyl-29,29-dioxo-23,28-dioxa-29λ^6-thia-1,14,15,16-tetraazahexacyclo[22.5.3.1^3,70.1^9,130.0^12,160.0^27,31]tetratriaconta-3(34),4,6,9(33),10,12,14,24,26,31-decaen-8-yl]acetic acid] | 353 nM |

| SMILES | Kd [1] | EC50 [2] |
| --- | --- | --- |
| Cc1ccc2cc1[C@@H](C)N1Cc3cc(ccc3OS1(=O)=O)OCCCN(C)CCn1nnc3c(C)c(ccc31)[C@H]2CC(=O)O [Example 21a, [(2R,8S)-2,4,19,33-Tetramethyl-29,29-dioxo-23,28-dioxa-29λ^6-thia-1,14,15,16,19-pentaazahexacyclo[22.5.3.1^3,70.1^9,130.0^12,160.0^27,31]tetratriaconta-3(34),4,6,9(33),10,12,14,24,26,31-decaen-8-yl]acetic acid] | 2.55 nM | 10.9 nM |
| Cc1ccc2cc1[C@@H](C)N1Cc3cc(ccc3OS1(=O)=O)OCCCN(C)CCn1nnc3c(C)c(ccc31)[C@@H]2CC(=O)O [Example 21b, [(2R,8R)-2,4,19,33-tetramethyl-29,29-dioxo-23,28-dioxa-29λ^6-thia-1,14,15,16,19-pentaazahexacyclo[22.5.3.1^3,70.1^9,130.0^12,160.0^27,31]tetratriaconta-3(34),4,6,9(33),10,12,14,24,26,31-decaen-8-yl]acetic acid] | 20.8 nM | 166 nM |
| Cc1ccc2cc1[C@@H](C)N1Cc3cc(ccc3OS1(=O)=O)OCCN(C)CCCn1nnc3c(C)c(ccc31)[C@H]2CC(=O)O [Example 34a, [(2R,8S)-2,4,20,33-tetramethyl-29,29-dioxo-23,28-dioxa-29λ^6-thia-1,14,15,16,20-pentaazahexacyclo[22.5.3.1^3,70.1^9,130.0^12,160.0^27,31]tetratriaconta-3(34),4,6,9(33),10,12,14,24,26,31-decaen-8-yl]acetic acid] | 0.49 nM | 2.66 nM |
| Cc1ccc2cc1[C@@H](C)N1Cc3cc(ccc3OS1(=O)=O)OCCN(C)CCCn1nnc3c(C)c(ccc31)[C@@H]2CC(=O)O [Example 34b, [(2R,8R)-2,4,20,33-tetramethyl-29,29-dioxo-23,28-dioxa-29λ^6-thia-1,14,15,16,20-pentaazahexacyclo[22.5.3.1^3,70.1^9,130.0^12,160.0^27,31]tetratriaconta-3(34),4,6,9(33),10,12,14,24,26,31-decaen-8-yl]acetic acid] | 1.85 nM | 31.1 nM |
